According to PubChem BioAssay AID2060885 (Molecular Pharmacology Branch, DTP, NCI, 2025):

Tested on: NCI-H23 complex spheroids with HUVEC/MSC, viability
Assay: Anticancer human tumor NCI-H23 cell line growth inhibition [RAS];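 also: spheroids exposed to compound for 7 days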;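 as to viability, T/C: 100% = DMSO vehicle control viability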
Conditions: for IC50: curve of first compound; for viability, T/C: stronger effect = lower value
Method in brief: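 Multi-cell-type spheroids: tumor cells plus HUVEC endothelial cells and mesenchymal stem cells. RAS-pathway inhibitors were combined with targeted agents, each dosed in half-log steps down from clinical Cmax, or from 10 microM when Cmax was unknown.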

SMILES: CCc1c2c(nc3ccc(O)cc13)-c1cc3c(c(=O)n1C2)COC(=O)[C@]3(O)CC + C=CC(=O)N1CCN(c2nc(OCC3CCCN3C)nc3c(F)c(-c4nc(N)cc(C)c4C(F)(F)F)c(Cl)cc23)C(C)C1
- IC50 (second compound 0.00316 µM): < 0.949 nM
- IC50 (second compound 0.01 µM): < 0.949 nM
- IC50 (second compound 0.0316 µM): < 0.949 nM
- IC50 (second compound 0.1 µM): < 0.949 nM
- IC50 (second compound 0.316 µM): < 0.949 nM
- IC50 (second compound 1 µM): < 0.949 nM
- viability, T/C (second compound 0.00316 µM, first compound 0.000949 µM): 41.6%
- viability, T/C (second compound 0.00316 µM, first compound 0.003 µM): 33.6%
- viability, T/C (second compound 0.00316 µM, first compound 0.00949 µM): 11.7%
- viability, T/C (second compound 0.00316 µM, first compound 0.03 µM): 3.8%
- viability, T/C (second compound 0.00316 µM, first compound 0.0949 µM): 2.71%
- viability, T/C (second compound 0.00316 µM, first compound 0.3 µM): 2.26%
- viability, T/C (second compound 0.01 µM, first compound 0.000949 µM): 40.6%
- viability, T/C (second compound 0.01 µM, first compound 0.003 µM): 26%
- viability, T/C (second compound 0.01 µM, first compound 0.00949 µM): 8.37%
- viability, T/C (second compound 0.01 µM, first compound 0.03 µM): 3.98%
- viability, T/C (second compound 0.01 µM, first compound 0.0949 µM): 2.14%
- viability, T/C (second compound 0.01 µM, first compound 0.3 µM): 1.54%
- viability, T/C (second compound 0.0316 µM, first compound 0.000949 µM): 33.3%
- viability, T/C (second compound 0.0316 µM, first compound 0.003 µM): 22.2%
- viability, T/C (second compound 0.0316 µM, first compound 0.00949 µM): 9.5%
- viability, T/C (second compound 0.0316 µM, first compound 0.03 µM): 4.43%
- viability, T/C (second compound 0.0316 µM, first compound 0.0949 µM): 2.52%
- viability, T/C (second compound 0.0316 µM, first compound 0.3 µM): 1.84%
- viability, T/C (second compound 0.1 µM, first compound 0.000949 µM): 32.5%
- viability, T/C (second compound 0.1 µM, first compound 0.003 µM): 19.6%
- viability, T/C (second compound 0.1 µM, first compound 0.00949 µM): 6.47%
- viability, T/C (second compound 0.1 µM, first compound 0.03 µM): 3.28%
- viability, T/C (second compound 0.1 µM, first compound 0.0949 µM): 2.14%
- viability, T/C (second compound 0.1 µM, first compound 0.3 µM): 2.49%
- viability, T/C (second compound 0.316 µM, first compound 0.000949 µM): 27.8%
- viability, T/C (second compound 0.316 µM, first compound 0.003 µM): 17.5%
- viability, T/C (second compound 0.316 µM, first compound 0.00949 µM): 7.44%
- viability, T/C (second compound 0.316 µM, first compound 0.03 µM): 3.62%
- viability, T/C (second compound 0.316 µM, first compound 0.0949 µM): 2.47%
- viability, T/C (second compound 0.316 µM, first compound 0.3 µM): 3.05%
- viability, T/C (second compound 1 µM, first compound 0.000949 µM): 25.9%
- viability, T/C (second compound 1 µM, first compound 0.003 µM): 21.2%
- viability, T/C (second compound 1 µM, first compound 0.00949 µM): 8.12%
- viability, T/C (second compound 1 µM, first compound 0.03 µM): 4.94%
- viability, T/C (second compound 1 µM, first compound 0.0949 µM): 2.44%
- viability, T/C (second compound 1 µM, first compound 0.3 µM): 2.51%

SMILES: Cc1nc(N2CCC3(CC2)COC(C)C3N)c(CO)nc1Sc1ccnc(N)c1Cl (centres undefined)
- viability, T/C (compound 0.0316 µM): 103% [middle of 4 runs]
- viability, T/C (compound 0.316 µM): 74.3% [middle of 4 runs]
- viability, T/C (compound 1 µM): 61.8% [middle of 4 runs]
- viability, T/C (compound 3.16 µM): 52.3% [middle of 4 runs]
- viability, T/C (compound 10 µM): 48.9% [middle of 4 runs]

SMILES: CC(=O)OC12COC1CC(O)C1(C)C(=O)C(O)C3=C(C)C(OC(=O)C(O)C(NC(=O)OC(C)(C)C)c4ccccc4)CC(O)(C(OC(=O)c4ccccc4)C21)C3(C)C (centres undefined) + C=CC(=O)N1CCN(c2nc(OCC3CCCN3C)nc3c(F)c(-c4nc(N)cc(C)c4C(F)(F)F)c(Cl)cc23)C(C)C1
- IC50 (second compound 0.00316 µM): < 31.6 nM
- IC50 (second compound 0.01 µM): < 31.6 nM
- IC50 (second compound 0.0316 µM): < 31.6 nM
- IC50 (second compound 0.1 µM): < 31.6 nM
- IC50 (second compound 0.316 µM): < 31.6 nM
- IC50 (second compound 1 µM): < 31.6 nM
- viability, T/C (second compound 0.00316 µM, first compound 0.0316 µM): 12.9%
- viability, T/C (second compound 0.00316 µM, first compound 0.1 µM): 17%
- viability, T/C (second compound 0.00316 µM, first compound 0.316 µM): 17.9%
- viability, T/C (second compound 0.00316 µM, first compound 1 µM): 16.9%
- viability, T/C (second compound 0.00316 µM, first compound 3.16 µM): 25.1%
- viability, T/C (second compound 0.00316 µM, first compound 10 µM): 41.9%
- viability, T/C (second compound 0.01 µM, first compound 0.0316 µM): 14.2%
- viability, T/C (second compound 0.01 µM, first compound 0.1 µM): 17.6%
- viability, T/C (second compound 0.01 µM, first compound 0.316 µM): 13.1%
- viability, T/C (second compound 0.01 µM, first compound 1 µM): 18.7%
- viability, T/C (second compound 0.01 µM, first compound 3.16 µM): 19.1%
- viability, T/C (second compound 0.01 µM, first compound 10 µM): 28.7%
- viability, T/C (second compound 0.0316 µM, first compound 0.0316 µM): 15.5%
- viability, T/C (second compound 0.0316 µM, first compound 0.1 µM): 17.1%
- viability, T/C (second compound 0.0316 µM, first compound 0.316 µM): 15.6%
- viability, T/C (second compound 0.0316 µM, first compound 1 µM): 15.9%
- viability, T/C (second compound 0.0316 µM, first compound 3.16 µM): 23.9%
- viability, T/C (second compound 0.0316 µM, first compound 10 µM): 26.2%
- viability, T/C (second compound 0.1 µM, first compound 0.0316 µM): 12.4%
- viability, T/C (second compound 0.1 µM, first compound 0.1 µM): 15.2%
- viability, T/C (second compound 0.1 µM, first compound 0.316 µM): 11.8%
- viability, T/C (second compound 0.1 µM, first compound 1 µM): 14.9%
- viability, T/C (second compound 0.1 µM, first compound 3.16 µM): 22.8%
- viability, T/C (second compound 0.1 µM, first compound 10 µM): 22.1%
- viability, T/C (second compound 0.316 µM, first compound 0.0316 µM): 11.1%
- viability, T/C (second compound 0.316 µM, first compound 0.1 µM): 13.9%
- viability, T/C (second compound 0.316 µM, first compound 0.316 µM): 14.3%
- viability, T/C (second compound 0.316 µM, first compound 1 µM): 16.3%
- viability, T/C (second compound 0.316 µM, first compound 3.16 µM): 18.9%
- viability, T/C (second compound 0.316 µM, first compound 10 µM): 26.8%
- viability, T/C (second compound 1 µM, first compound 0.0316 µM): 11.8%
- viability, T/C (second compound 1 µM, first compound 0.1 µM): 14.7%
- viability, T/C (second compound 1 µM, first compound 0.316 µM): 14.4%
- viability, T/C (second compound 1 µM, first compound 1 µM): 15.4%
- viability, T/C (second compound 1 µM, first compound 3.16 µM): 21.5%
- viability, T/C (second compound 1 µM, first compound 10 µM): 20.9%
